# From paper PMC9269301, “Phytochemical Analysis, Antioxidant, Antimicrobial, and Cytotoxic Activity of Different Extracts of Xanthoparmelia stenophylla Lichen from Stara Planina, Serbia” (Plants, 2022)
# Marks after values point to notes of the source that are not given here.
# Columns and labels:
# [1] = test system: C. albicans (isolate); test: Microdilution with resazurin, antifungal; assay type: cell-based, Candida albicans; conditions: Candida albicans, antimycotics
# Description: (§1) The tested methanol, acetone, and n-hexane extracts, as well as the component (usnic acid) of X. stenophylla, were dissolved in 10% dimethyl sulfoxide (DMSO) and then diluted into the nutrient liquid medium. DMSO was obtained from Acros Organics (Fair Lawn, NJ, USA). Resazurin was obtained from Alfa Aesar GmbH & Co. (KG, Karlsruhe, Germany).
# (§2) The antimicrobial activity of the extracts and components was tested against 19 microorganisms. The experiment involved 15 strains of bacteria (i.e., 6 standard strains: Staphylococcus aureus ATCC 6538, Bacillus subtilis ATCC 6633, Proteus mirabilis ATCC 12453, Pseudomonas aeruginosa ATCC 27853, Klebsiella pneumoniae ATCC 70063, and Escherichia coli ATCC 25922; 9 isolates: Staphylococcus aureus, Escherichia coli, Salmonella enterica, Salmonella Typhimurium, Proteus mirabilis, Klebsiella pneumoniae, Pseudomonas aeruginosa, Bacillus subtilis, and Bacillus cereus). In addition, four fungal strains (i.e., two standard strains: Candida albicans ATCC 10231 and Aspergillus niger ATCC 16888; two isolates: Saccharomyces cerevisiae and Candida albicans) were tested. All isolates were a generous gift from the Institute of Public Health, Kragujevac. The other microorganisms were provided from the collection held by the Microbiology Laboratory Faculty of Science, University of Kragujevac.
# (§3) The bacterial suspensions were prepared by the direct colony method. The turbidity of the initial suspension was adjusted using a densitometer (DEN-1, BioSan, Riga, Latvia). When adjusted to the turbidity of the 0.5 McFarland’s standard (Andrews, 2005) the bacteria suspension contained approximately 10^8 colony-forming units (CFU)/mL, and the suspension of yeast contained 10^6 CFU/mL; 1:100 dilutions of the initial suspension were additionally prepared in sterile 0.85% saline. The suspensions of fungal spores were prepared by gentle stripping of spores from slopes with growing mycelia. The resulting suspensions were 1:1000 diluted in sterile 0.85% saline.
# (§4) Antimicrobial activity was tested by determining the minimum inhibitory concentrations (MICs) and minimum microbicidal concentrations (MBCs) using the microdilution plate method with resazurin [56]. The 96-well plates were prepared by dispensing 100 μL of Mueller–Hinton broth for bacteria and Sabouard broth for fungi into each well. A 10 μL aliquot from the stock solution of the tested extract or component was added to the first row of the plate. Then, two-fold serial dilutions were performed using a multichannel pipette. The obtained concentration range was from 10 to 0.08 mg/mL. The method is described in detail in [76].
# (§5) Each test included growth control and sterility control.
# (§6) Minimum microbicidal concentrations were determined by plating 10 μL of samples from wells where no indicator color change or no mycelia growth was recorded on a nutrient agar medium. At the end of the incubation period, the lowest concentration with no growth (no colony) was defined as the minimum microbicidal concentration.
# [2] = test system: C. albicans ATCC 10231; test: Microdilution with resazurin, antifungal; assay type: cell-based, Candida albicans; conditions: Candida albicans, ATCC10231, antimycotics
# Description: as §1, §2, §3, §4, §5, §6
# [3] = test system: S. cerevisiae (isolate); test: Microdilution with resazurin, antifungal; assay type: cell-based, Saccharomyces cerevisiae; conditions: Saccharomyces cerevisiae, antimycotics
# Description: as §1, §2, §3
# as §4, with “[76]. […]” for “[76].”
# Minimum microbicidal concentrations were determined by plating 10 μL of samples from wells where no indicator color change or no mycelia growth was recorded on a nutrient agar medium. […]
# [4] = test system: A. niger ATCC 16888; test: Microdilution with resazurin, antifungal; assay type: cell-based, Aspergillus niger; conditions: Aspergillus niger, ATCC16888, antimycotics
# Description: as §1, §2, §3, §4, §5, §6
# [5] = Superoxide anion radical scavenging activity (NBT/NADH/PMS); assay type: biochemical; conditions: mean ± SD, triplicate
# Description: All chemicals for the antioxidant activity test were purchased from Sigma Aldrich. All measurements were conducted in triplicate, and a Shimadzu UV-1800 spectrophotometer was used for all measurements during antioxidant activity experiments. The IC50 value was used for comparing different radical scavenging effects between investigated extracts, isolated compounds, and positive controls. […] [75] with modifications. […] To initiate the reaction, 0.1 mL of phenazine methosulfate (PMS) solution ([…] in 0.1 M phosphate buffer at pH 7.4) was added to each tube. The mixture was incubated at room temperature for 5 min, and then the absorbance was measured at 560 nm relative to the blank. Ascorbic acid, gallic acid, and Trolox were used as positive controls, and a decrease in absorbance indicated increased superoxide anion radical scavenging activity. […] Ac stands for absorbance of the control (which contains all reagents, except the tested extract or compound), and As is the absorbance of the sample.
# [6] = DPPH radical scavenging activity; assay type: biochemical; conditions: mean ± SD, triplicate
# Description: All chemicals for the antioxidant activity test were purchased from Sigma Aldrich. All measurements were conducted in triplicate, and a Shimadzu UV-1800 spectrophotometer was used for all measurements during antioxidant activity experiments. The IC50 value was used for comparing different radical scavenging effects between investigated extracts, isolated compounds, and positive controls. […] [71] with certain modifications. […] The solution was prepared ex tempore and stored in a tinted bottle in the refrigerator until the experiments were performed. […] The reaction mixture was vortexed and allowed to incubate in the dark for one hour, after which the absorbance was measured at 517 nm relative to the blank. […] Ac stands for absorbance of the control (which contains all reagents, except the tested extract or compound), and As is the absorbance of the sample.
# [7] = Hydroxyl radical scavenging activity (2-deoxyribose); assay type: biochemical; conditions: mean ± SD, triplicate
# Description: All chemicals for the antioxidant activity test were purchased from Sigma Aldrich. All measurements were conducted in triplicate, and a Shimadzu UV-1800 spectrophotometer was used for all measurements during antioxidant activity experiments. The IC50 value was used for comparing different radical scavenging effects between investigated extracts, isolated compounds, and positive controls. The ability to inhibit non-site-specific peroxidation mediated by hydroxyl radicals for […], and XSH was determined using the method previously described in the literature. During the experiment, in a reaction mixture that contained 500 μL of 5.6 mM 2-deoxy-D-ribose in KH2PO4-NaOH buffer (50 mM, pH 7.4), 100 μL of 1.0 mM aqueous ascorbic acid, 100 μL of 1.0 mM H2O2, and 200 μL of premixed solution of 100 μM FeCl3 and […] EDTA (1:1 v/v), 100 μL of extract dissolved in water was added. The tubes were vigorously shaken, vortexed, and incubated for 30 min at 50 °C. […] The mixture was vortexed again and heated in a water bath for 30 min at 50 °C. […] Ac stands for absorbance of the control (which contains all reagents, except the tested extract or compound), and As is the absorbance of the sample.
# [8] = test system: P. mirabilis ATCC 12453; test: Microdilution with resazurin, antibacterial; assay type: cell-based, Proteus mirabilis; conditions: Proteus mirabilis, ATCC12453, antibiotics
# Description: as §1, §2, §3, §4, §5, §6
# [9] = test system: P. mirabilis (isolate); test: Microdilution with resazurin, antibacterial; assay type: cell-based, Proteus mirabilis; conditions: Proteus mirabilis, antibiotics
# Description: as §1, §2, §3, §4, §5, §6
# [10] = test system: S. Typhimurium (isolate); test: Microdilution with resazurin, antibacterial; assay type: cell-based, Salmonella Typhimurium; conditions: Salmonella enterica, antibiotics
# Description: as §1, §2, §3, §4, §5, §6
# [11] = test system: S. aureus ATCC 6538; test: Microdilution with resazurin, antibacterial; assay type: cell-based, Staphylococcus aureus; conditions: Staphylococcus aureus, ATCC6538, antibiotics
# Description: as §1, §2, §3, §4, §5, §6
# [12] = test system: S. aureus (isolate); test: Microdilution with resazurin, antibacterial; assay type: cell-based, Staphylococcus aureus; conditions: Staphylococcus aureus, antibiotics
# Description: as §1, §2, §3, §4, §5, §6
# [13] = test system: P. aeruginosa (isolate); test: Microdilution with resazurin, antibacterial; assay type: cell-based, Pseudomonas aeruginosa; conditions: Pseudomonas aeruginosa, antibiotics
# Description: as §1, §2, §3, §4, §5, §6
# [14] = test system: P. aeruginosa ATCC 27853; test: Microdilution with resazurin, antibacterial; assay type: cell-based, Pseudomonas aeruginosa; conditions: Pseudomonas aeruginosa, ATCC27853, antibiotics
# Description: as §1, §2, §3, §4, §5, §6
# [15] = test system: B. cereus (isolate); test: Microdilution with resazurin, antibacterial; assay type: cell-based, Bacillus cereus; conditions: Bacillus cereus, antibiotics
# Description: as §1, §2, §3, §4, §5, §6
# [16] = test system: E. coli (isolate); test: Microdilution with resazurin, antibacterial; assay type: cell-based, Escherichia coli; conditions: Escherichia coli, antibiotics
# Description: as §1, §2, §3, §4, §5, §6
# [17] = test system: E. coli ATCC 25922; test: Microdilution with resazurin, antibacterial; assay type: cell-based, Escherichia coli; conditions: Escherichia coli, ATCC25922, antibiotics
# Description: as §1, §2, §3, §4, §5, §6
# [18] = test system: K. pneumoniae ATCC 70063; test: Microdilution with resazurin, antibacterial; assay type: cell-based, Klebsiella pneumoniae; conditions: Klebsiella pneumoniae, ATCC70063, antibiotics
# Description: as §1, §2, §3, §4, §5, §6
# [19] = test system: K. pneumoniae (isolate); test: Microdilution with resazurin, antibacterial; assay type: cell-based, Klebsiella pneumoniae; conditions: Klebsiella pneumoniae, antibiotics
# Description: as §1, §2, §3, §4, §5, §6
# [20] = test system: B. subtilis (isolate); test: Microdilution with resazurin, antibacterial; assay type: cell-based, Bacillus subtilis; conditions: Bacillus subtilis, antibiotics
# Description: as §1, §2, §3, §4, §5, §6
# [21] = test system: B. subtilis ATCC 6633; test: Microdilution with resazurin, antibacterial; assay type: cell-based, Bacillus subtilis; conditions: Bacillus subtilis, ATCC6633, antibiotics
# Description: as §1, §2, §3, §4, §5, §6
# [22] = test system: S. enterica (isolate); test: microbe, parasite or virus in culture; assay type: cell-based, Salmonella enterica; conditions: Salmonella enterica, S. enterica, antibiotics
# Description: as §1, §2, §3, §4, §5, §6
structure (smiles),measurement,setting,value
"OC(Cn1cncn1)(Cn1cncn1)c1ccc(F)cc1F [FC, fluconazole]",MFC,[1]; read-out: MFC,62.5 µg/mL
same,MIC,[1]; read-out: MIC,62.5 µg/mL
same,MFC,[2]; read-out: MFC,31.2 µg/mL
same,MIC,[2]; read-out: MIC,31.2 µg/mL
same,MFC,[3]; read-out: MFC,7.81 µg/mL
same,MIC,[3]; read-out: MIC,7.81 µg/mL
same,MFC,[4]; read-out: MFC,500 µg/mL
same,MIC,[4]; read-out: MIC,250 µg/mL
"Cc1c(C)c2c(c(C)c1O)CCC(C)(C(=O)O)O2 (centres unmarked) [Trolox, 6-hydroxy-2,5,7,8-tetramethylchroman-2-carboxylic acid]",Superoxide Anion Radical Scavenging Activity (IC50),[5],"135.14 ± 0.88 ^a,b,d,e,f µg/mL"
same,DPPH Radical Scavenging Activity (IC50),[6],"10.79 ± 0.83 ^a,b,c,d,e µg/mL"
same,Hydroxyl Radical Scavenging Activity (IC50),[7],"131.45 ± 0.56 ^c,e µg/mL"
"O=C(O)c1cc(O)c(O)c(O)c1 [Gallic acid, gallic acid]",Superoxide Anion Radical Scavenging Activity (IC50),[5],"68.55 ± 0.45 ^a,b,c,d,e µg/mL"
same,DPPH Radical Scavenging Activity (IC50),[6],"3.72 ± 0.65 ^a,b,c,d,e µg/mL"
same,Hydroxyl Radical Scavenging Activity (IC50),[7],"45.12 ± 0.51 ^a,b,c,d,e µg/mL"
"O=C1O[C@H]([C@@H](O)CO)C(O)=C1O [Ascorbic acid, ascorbic acid]",Superoxide Anion Radical Scavenging Activity (IC50),[5],"105.62 ± 0.84 ^c,d,e,f µg/mL"
same,DPPH Radical Scavenging Activity (IC50),[6],"6.31 ± 0.78 ^a,b,c,d µg/mL"
same,Hydroxyl Radical Scavenging Activity (IC50),[7],"155.91 ± 0.64 ^a,d,e µg/mL"
"CC1(C)S[C@@H]2[C@H](NC(=O)[C@H](N)c3ccccc3)C(=O)N2[C@H]1C(=O)O [AMP, ampicillin]",MBC,[8]; read-out: MBC,4 µg/mL
same,MIC,[8]; read-out: MIC,4 µg/mL
same,MBC,[9]; read-out: MBC,> 128 µg/mL
same,MIC,[9]; read-out: MIC,> 128 µg/mL
same,MBC,[10]; read-out: MBC,2 µg/mL
same,MIC,[10]; read-out: MIC,2 µg/mL
same,MBC,[11]; read-out: MBC,0.75 µg/mL
same,MIC,[11]; read-out: MIC,0.25 µg/mL
same,MBC,[12]; read-out: MBC,< 0.06 µg/mL
same,MIC,[12]; read-out: MIC,< 0.06 µg/mL
same,MBC,[13]; read-out: MBC,> 128 µg/mL
same,MIC,[13]; read-out: MIC,> 128 µg/mL
same,MBC,[14]; read-out: MBC,> 128 µg/mL
same,MIC,[14]; read-out: MIC,> 128 µg/mL
same,MBC,[15]; read-out: MBC,6 µg/mL
same,MIC,[15]; read-out: MIC,4 µg/mL
same,MBC,[16]; read-out: MBC,1.2 µg/mL
same,MIC,[16]; read-out: MIC,2.1 µg/mL
same,MBC,[17]; read-out: MBC,0.5 µg/mL
same,MIC,[17]; read-out: MIC,0.37 µg/mL
same,MBC,[18]; read-out: MBC,> 128 µg/mL
same,MIC,[18]; read-out: MIC,> 128 µg/mL
same,MBC,[19]; read-out: MBC,> 128 µg/mL
same,MIC,[19]; read-out: MIC,> 128 µg/mL
same,MBC,[20]; read-out: MBC,128 µg/mL
same,MIC,[20]; read-out: MIC,16 µg/mL
same,MBC,[21]; read-out: MBC,4 µg/mL
same,MIC,[21]; read-out: MIC,3 µg/mL
same,MBC,[22]; read-out: MBC,1 µg/mL
same,MIC,[22]; read-out: MIC,1 µg/mL
